For one data set, the system named is Staphylococcus aureus. The following applies: mixed-species biofilms grown 22 hours, 20 hours of treatment. On the procedure:
(§1) Several CSA compounds were tested against Pseudomonas aeruginosa and Staphylococcus aureus mixed-species biofilms grown for an initial 22 hours and subjected to 20 hours of treatment.

A further data set concerns Pseudomonas aeruginosa. The following applies: mixed-species biofilms grown 22 hours, 20 hours of treatment. On the procedure:
as §1

Data set [1] in a line: Hydrogel coating stability and reaction with ethylene oxide (ETO). On the procedure: Releases of CSA-131 from hydrogel-based coatings were investigated, including examining coating stability and reaction of the coating with ethylene oxide (ETO) during sterilization processes. […] To mask this reactivity, coatings were prepared including varies percentages of citric acid to form non-volatile salts of the CSA compound.
Using a jet mill (Fluid Energy), CSA-131 2-NDSA was milled to an average particle size of 200 nm.

Data set [2] concerns Pseudomonas aeruginosa (PA01). Nature of the data set: Coated endotracheal tube segments, daily re-inoculation, growth in medium. The data set is classed as cell-based. The arrangement: key to bacterial growth in medium, Day 1 / bacterial growth in medium, Day 2 / bacterial growth in medium, Day 3 / bacterial growth in medium, Day 4 / bacterial growth in medium, Day 5 / bacterial growth in medium, Day 6 / bacterial growth in medium, Day 7 / bacterial growth in medium, Day 10 / bacterial growth in medium, Day 8 / bacterial growth in medium, Day 9: N=no growth; G=growth. The procedure: (§2) A hydrogel coating containing 10% CSA-131 HCl and 3% citric acid, relative to the hydrogel solids, was tested for antibacterial efficacy using endotracheal tube segments (5.0 mm). These tube segments (surface area of ca. 1.5 cm^2) were dip coated and cured to give coatings of approximately 10 microns. Coated tube segments were washed in phosphate buffered saline (PBS) for varied amounts of time before testing. Antibacterial testing involved immersing tube segments in 10% TSB in PBS (1.0 mL) and inoculating with Pseudomonas aeruginosa (PA01)@10^6 colony forming units (CFU). Samples were incubated for 24 h, and bacterial growth in the medium was assayed visually (i.e., turbidity in the medium is caused by unrestricted bacterial growth). […] And the converse is true: if growth is supported in the medium that the device is colonized, to some extent.
(§3) After 24 h of incubation, tube segments were immersed in fresh growth media (10% TSB in PBS, 1 mL), re-inoculated, and incubated. […] Experiments were performed in triplicate. N=no growth, G=growth.
(§4) Antibacterial activity of a hydrogel coating (ca. 10 microns) containing CSA-131 2-NDSA (10% by weight relative to hydrogel solids) was determined as described in Example 8 using methicillin-resistant Staphylococcus aureus (MRSA) and Pseudomonas aeruginosa (PA01).

In data set [3] the test system is methicillin-resistant Staphylococcus aureus (MRSA). The description is as above. The data set is classed as cell-based. The arrangement: key to bacterial growth in medium, Day 1 / bacterial growth in medium, Day 10 / bacterial growth in medium, Day 2 / bacterial growth in medium, Day 3 / bacterial growth in medium, Day 4 / bacterial growth in medium, Day 5 / bacterial growth in medium, Day 6 / bacterial growth in medium, Day 7 / bacterial growth in medium, Day 8 / bacterial growth in medium, Day 9: N=no growth; G=growth. On the procedure: as §2, §3, §4

Another data set relates to PA01. Put plainly: Drip flow system, whole coated endotracheal tubes. Format: cell-based, Pseudomonas aeruginosa. The following applies: hydrogel 10% CSA-131 2-NDSA; three inoculations of 10^7 CFU, 24 h; detection limit 10 CFU. On the procedure:
At eight-hour intervals, bacteria (PA01, 10^6 CFU/mL) were passed through the tubes for 10 min (total of 10^7 CFU) at each interval. At a time point 30 min after introduction of bacteria, the growth medium flowing through the tubes was collected and plated to determine the number of bacterial colonies present. After 24 h, tubes were removed and sections (5 mm) were cut from above and below the cuff. These were sonicated in a neutralizing medium and the resulting solution was plated to quantify bacterial biofilm growth.

[4] abbreviates: PA01, three replicates, hydrogel coating 10% CSA-131 2-NDSA, re-inoculated every 24 h.
Setting [5] is: three replicates, hydrogel coating 10% CSA-131 2-NDSA, re-inoculated every 24 h.
Setting [6] is: Unwashed, hydrogel coating 10% CSA-131 HCl, 3% citric acid, PA01 re-inoculated every 24 h.
The mark [7] stands for this setting: Wash Time 15 min in PBS, hydrogel coating 10% CSA-131 HCl, 3% citric acid, PA01 re-inoculated every 24 h.
[8] abbreviates: Wash Time 30 min in PBS, hydrogel coating 10% CSA-131 HCl, 3% citric acid, PA01 re-inoculated every 24 h.
The mark [9] stands for this setting: Wash Time 1 hour in PBS, hydrogel coating 10% CSA-131 HCl, 3% citric acid, PA01 re-inoculated every 24 h.

Converted amounts (≈) assume the structure as drawn. “And” between values parts separate entries of the source, which are not always exact repeats. Equal entries are not always repeated.

With `CCCCCN(CCCCC)CCC[C@@H](C)[C@H]1CC[C@H]2[C@@H]3[C@H](OCCCN)C[C@@H]4C[C@H](OCCCN)CC[C@]4(C)[C@H]3C[C@H](OCCCN)[C@]12C` [CSA-90], in the data set with Staphylococcus aureus, the “MBC S. aureus” value came out at 1.56 µg/mL (≈ 2.21 µM) and the “MIC S. aureus” value came out at 1.56 µg/mL (≈ 2.21 µM). Further, in the data set with Pseudomonas aeruginosa, the “MBC P. aeruginosa” value came out at 6.25 µg/mL (≈ 8.86 µM) and the “MIC P. aeruginosa” value was 6.25 µg/mL (≈ 8.86 µM).

Consider `CCCCCCCCOC(=O)CC[C@@H](C)[C@H]1CC[C@H]2[C@@H]3[C@H](OC(=O)CCN)C[C@@H]4C[C@H](OC(=O)CCN)CC[C@]4(C)[C@H]3C[C@H](OC(=O)CCN)[C@]12C` [CSA-44], for which, in the data set with Staphylococcus aureus, the “MBC S. aureus” value came to 3.25 µg/mL (≈ 4.43 µM) and the “MIC S. aureus” value amounted to 1.56 µg/mL (≈ 2.13 µM). Also, in the data set on Pseudomonas aeruginosa, the “MBC P. aeruginosa” value came out at 6.25 µg/mL (≈ 8.51 µM) and the “MIC P. aeruginosa” value is 3.125 µg/mL (≈ 4.26 µM).

Regarding `CCCCCCCCCCCCNCCC[C@@H](C)[C@H]1CC[C@H]2[C@@H]3[C@H](OCCCN)C[C@@H]4C[C@H](OCCCN)CC[C@]4(C)[C@H]3C[C@H](OCCCN)[C@]12C.O=S(=O)(O)c1cccc2c(S(=O)(=O)O)cccc12.O=S(=O)(O)c1cccc2c(S(=O)(=O)O)cccc12` [CSA-131 2-NDSA], in data set [1] (CSA-131 2-NDSA in hydrogel coating), the coating stability entry is on record as “stable coatings”. Further, in data set [1] (CSA-131 2-NDSA particles (200 nm) in hydrogel coating), the “reaction with ETO during sterilization” value is reported as “did not react with ETO”. In addition, in data set [2] (setting [4]), the “bacterial growth in medium, Day 1” value was “N”; the “bacterial growth in medium, Day 2” value is “N”; the “bacterial growth in medium, Day 3” value was “N”; the “bacterial growth in medium, Day 4” value is recorded as “N”. Moreover, in data set [2] (setting [4]), the “bacterial growth in medium, Day 5” value is “N”; the “bacterial growth in medium, Day 6” value is “N”; the “bacterial growth in medium, Day 7” value is on record as “N”; the “bacterial growth in medium, Day 8” value was “G”. In data set [2] (setting [4]), the “bacterial growth in medium, Day 9” value was “G” and the “bacterial growth in medium, Day 10” value was “G”. In addition, the “time coating prevented bacterial growth” value in data set [2] (PA01, hydrogel coating ca. 10 microns, 10% CSA-131 2-NDSA) was “seven”. Further, in data set [3] (hydrogel coating ca. 10 microns, 10% CSA-131 2-NDSA), the “time coating prevented bacterial growth” value was “eight”. Further, in data set [3] (setting [5]), the “bacterial growth in medium, Day 1” value is “N”; the “bacterial growth in medium, Day 2” value is recorded as “N”; the “bacterial growth in medium, Day 3” value is reported as “N”; the “bacterial growth in medium, Day 4” value is given as “N”. Besides, in data set [3] (setting [5]), the “bacterial growth in medium, Day 5” value was “N”; the “bacterial growth in medium, Day 6” value is reported as “N”; the “bacterial growth in medium, Day 7” value is “G and N (2×)”; the “bacterial growth in medium, Day 8” value was “G and N (2×)”. Also, in data set [3] (setting [5]), the “bacterial growth in medium, Day 9” value is on record as “G” and the “bacterial growth in medium, Day 10” value is recorded as “G”. In the data set on PA01, the “bacteria from sonication of tube sections (biofilm)” value was “no bacteria were detected” and the “bacteria in collected effluent from tubes” value is “no bacteria were detected”.

As to `CC(CCCOCCCN)C1CCC2C3C(OCCCN)CC4CC(OCCCN)CCC4(C)C3CC(OCCCN)C12C.Cl.Cl.Cl.Cl` (stereo not drawn) [CSA-25], in the data set on Staphylococcus aureus, the “MBC S. aureus” value was found to be 3.25 µg/mL and the “MIC S. aureus” value was determined as 1.56 µg/mL. For the same compound, in the data set on Pseudomonas aeruginosa, the “MBC P. aeruginosa” value came out at 50 µg/mL and the “MIC P. aeruginosa” value was found to be 25 µg/mL.

As for `CCCCCCCCCCCCNCCC[C@@H](C)[C@H]1CC[C@H]2[C@@H]3[C@H](OCCCN)C[C@@H]4C[C@H](OCCCN)CC[C@]4(C)[C@H]3C[C@H](OCCCN)[C@]12C.Cl.Cl.Cl.Cl` [CSA-131 HCl], the “mechanical integrity of coating on silicone tube segments” value in data set [1] (CSA-131 HCl 10% relative to coating solids, prolonged soaking in buffer) is given as “some flaking of the coating”. Also, in data set [1] (hydrogel coating with at least 3% (by weight relative to hydrogel solids) citric acid), the ETO adduct formation entry was “eliminated”. Besides, the “reaction with ETO during sterilization” value in data set [1] (tube segments coated with hydrogel containing CSA-131 HCl (10%)) was “substantial reaction, leading to ETO adducts”. Further, in data set [2] (setting [6]), the “bacterial growth in medium, Day 1” value was “N”; the “bacterial growth in medium, Day 2” value is on record as “N”; the “bacterial growth in medium, Day 3” value is recorded as “N”; the “bacterial growth in medium, Day 4” value is “N”. In data set [2] (setting [6]), the “bacterial growth in medium, Day 5” value is given as “G”; the “bacterial growth in medium, Day 6” value is “G”; the “bacterial growth in medium, Day 7” value is “G”. Moreover, in data set [2] (setting [7]), the “bacterial growth in medium, Day 1” value is recorded as “N”; the “bacterial growth in medium, Day 2” value is listed as “N”; the “bacterial growth in medium, Day 3” value is “N”; the “bacterial growth in medium, Day 4” value was “N”. Also, in data set [2] (setting [7]), the “bacterial growth in medium, Day 5” value is “G”; the “bacterial growth in medium, Day 6” value is recorded as “G”; the “bacterial growth in medium, Day 7” value was “G”. Besides, in data set [2] (setting [8]), the “bacterial growth in medium, Day 1” value was “N”; the “bacterial growth in medium, Day 2” value is on record as “N”; the “bacterial growth in medium, Day 3” value is reported as “N”; the “bacterial growth in medium, Day 4” value is on record as “N”. Besides, in data set [2] (setting [8]), the “bacterial growth in medium, Day 5” value was “G”; the “bacterial growth in medium, Day 6” value is “G”; the “bacterial growth in medium, Day 7” value is “G”. In addition, in data set [2] (setting [9]), the “bacterial growth in medium, Day 1” value is “N”; the “bacterial growth in medium, Day 2” value was “N”; the “bacterial growth in medium, Day 3” value is reported as “N”; the “bacterial growth in medium, Day 4” value is listed as “N”. In data set [2] (setting [9]), the “bacterial growth in medium, Day 5” value is given as “G”; the “bacterial growth in medium, Day 6” value is “G”; the “bacterial growth in medium, Day 7” value is reported as “G”.
